In a melting point compilation (Tetko et al.; mined from patent text by program, amines drawn as free bases though some values may be those of a salt) one finds melting point data, which are given here for 63 molecules.

As to `COCCCN(c1nc(Cl)nc(N(CCCOC)C2CC(C)(C)NC(C)(C)C2)n1)C1CC(C)(C)NC(C)(C)C1`, the melting point lay in the range of 160 to 161 °C. The molecule `Cc1cc(C)c(COc2cccnc2N)c(C)c1` displayed a melting point of 160 to 166 °C. To `c1cc2c(cn1)ncn2CCCCc1nnnn1C1CCCCC1` belongs 93 to 95 °C. The same measure for `CCCC(=O)N(CCC)C1Cc2ccc(-c3ccc(=O)[nH]n3)cc2C1` (single isomer, unassigned; (+)): 159 to 160 °C; for `COc1cc2cc3c(Nc4ccc(Sc5nccn5C)c(Cl)c4)c(C#N)cnc3cc2cc1O`: above 300 °C; for `COc1cc2c(Cl)c(C#N)cnc2c(OC)c1OC`: 161 to 163 °C. In turn, `CCc1nc2c(N)nc3cc(-c4cccnc4)ccc3c2n1CC(C)(C)O` came in with a melting point of 245 to 247 °C.

`O=C(O)c1csc2c1OC(c1ccccc1)(C1CCCCC1)CC2=O` (stereo not drawn) displayed a melting point of 269 to 275 °C.

`O=C(C(=O)c1ccc(F)c(CF)c1)c1ccc(OC(F)F)cc1` yielded a melting point of 68 to 70 °C.

Consider `COC=C(C(=O)OC)c1ccccc1CCc1ccccc1`, for which the melting point lay in the range of 52 to 54 °C. `CC(=O)Oc1cccc(-c2noc(C)n2)c1` had a melting point of 94 °C. `O=C(Cc1cc(F)cc(F)c1)Nc1cccc2nc(N[C@@H]3CCc4ccccc43)ccc12`: the melting point was found to be 221 °C. With `COc1ccc(NS(C)(=O)=O)cc1CN1CCC(=O)C(C(c2ccccc2)c2ccccc2)C1` (stereo not drawn), the melting point lay in the range of 132 to 135 °C. Molecule `COc1cccc(CN2CCC(n3c(C)c(-c4ccccc4)[nH]c3=O)CC2)c1` yielded a melting point of 227 to 228 °C. In the case of `C[C@H](CS)C(=O)N1C(C(=O)O)CCC1c1ccccc1` (stereo partly drawn), the melting point is 138 to 142 °C. `Cc1cc(COc2ccc(C(=O)NC[C@@H](C(=O)NO)N3CCN(S(C)(=O)=O)CC3)cc2)c2ccccc2n1` yielded a melting point of 175 °C. `O=c1[nH]c2c(CCO)c3ccccc3n2c2ccccc12` showed a melting point of 248 to 252 °C.

In turn, `COC(=O)c1nn(Cc2ccccc2)c2c1CCc1cc(OCc3cncnc3)ccc1-2` came in with a melting point of 202 to 203 °C.

Take `O=C(O)CCC(=NOCc1ccc(OCc2cc(-c3ccccc3)on2)cc1)c1ccccc1`: the melting point fell in the range of 100 to 101 °C. `COCc1nc2c(OC)ccc(C(=O)Nc3c(Cl)cncc3Cl)c2[nH]1` came in with a melting point of 230 to 231 °C.

Consider `O[C@@H]1CCCC[C@H]1Nc1ccccc1` (relative stereo), for which the melting point lay within 57 to 58 °C.

Molecule `Cn1c(Nc2cc(C(F)(F)F)ccc2C(F)(F)F)nc(C(F)(F)F)cc1=O` returned a melting point of 155 to 156 °C. The molecule `Cc1ccc2c(n1)C(=O)N(c1cccc(S(C)(=O)=O)c1C)C2=O` gave a melting point of 237 to 239 °C. To `COc1ccc2c3c(n(C)c2c1)SCCC3=O` belongs 204 to 206 °C. `Cc1oc(-c2ccccc2)nc1COc1ccc(COc2ncccc2C#N)cc1` came in with a melting point of 119 to 120 °C. As for `Cn1ncc2c1-c1cc(Cl)ccc1OC2`, the melting point was in the range of 80.5 to 81 °C. Molecule `COc1ccc(O)c(C(=O)c2ccc(O)cc2)c1` displayed a melting point of 144 to 148 °C. The same measure for `O=C(O)CSc1nc(=O)[nH]cc1F`: 255 °C; for `COc1ccc(C(=O)C=Cc2ccccc2O)c(OC)c1OC`: 123 °C.

With `CCc1c(-c2ccc(OC)cc2)cn2ccc(OC)cc12`, the melting point lay within 101 to 103 °C. As for `C[C@@H](n1ccn(-c2ccc(-n3ccnn3)cc2)c1=O)[C@](O)(Cn1cncn1)c1ccc(F)cc1F`, the melting point fell in the range of 178 to 181 °C. The same measure for `CC(=O)Nc1cc(F)ccc1F`: 124 to 125 °C; for `COc1c(O)cc2oc(-c3ccccc3)cc(=O)c2c1O`: 203 to 204 °C. For `COC1CC(N2CCCC2)C(N(C)C(=O)COc2cccc(F)c2)CC1OC` (stereo not drawn), the melting point fell in the range of 119 to 121 °C. Molecule `CC1=C(C)C(N)(Cc2ccccc2)C(C)C2=C1OCC2c1ccc(C)cc1` (stereo not drawn) showed a melting point of 99 to 100 °C. For `CCOC(=O)c1c(C)cc2nc(COC(N)=O)n(-c3ccccc3C(F)(F)F)c(=O)c2c1C`, the melting point lay within 158 to 159 °C. In turn, `Nc1nc(CN2CCN(C(c3ccccc3)c3ccccc3)CC2)cs1` showed a melting point of 156 to 160 °C. The molecule `Cc1nc(N)nc(N)c1-c1ccc([N+](=O)[O-])c(Cl)c1Cl` returned a melting point of 265 °C.

The molecule `NS(=O)(=O)c1cc(C(=O)O)cc(SCc2ccsc2)c1-c1ccccc1` displayed a melting point of 92 to 94 °C. In the case of `COc1cc(C(=O)N2CCN(C(=O)OC(C)(C)C)C(C(=O)N(C)C)C2)cc(OC)c1OC` (stereo not drawn), the melting point was in the range of 146 to 147 °C. Consider `COc1ccc2c(c1)c(-c1cc3c(-c4cccnc4)ccnc3[nH]1)cn2C`, for which the melting point was in the range of 248 to 249 °C. To `O=[N+]([O-])c1cccc2c(NCC34CCCN3CCC4)cccc12` belongs 95 to 97 °C; to `COc1ccc(-c2nc(CN)no2)cc1`, 66 to 68 °C. As for `COC(=O)CC1SC2=Nc3ccccc3CN2C1=O` (stereo not drawn), the melting point lay in the range of 143 to 144 °C. For the molecule `COc1cc(F)ccc1OCCN1C(=O)c2ccccc2C1=O`, the melting point lay in the range of 102 to 104 °C. On to `C#C[C@]1(C)CCc2c(C)c(OC)c(C)c(C)c2O1`, for which the melting point fell in the range of 94 to 97 °C. Turning to `COc1ccc2nc(NC(=O)C(CC3CCCC3)c3ccc(S(=O)(=O)Nc4ccccc4)cc3)sc2n1` (stereo not drawn), the melting point lay in the range of 223 to 226 °C. With `CC1CC2C3CCC4=CC(=O)C=CC4(C)C3=CCC2(C)C1C(=O)COS(=O)(=O)c1ccc(Br)cc1` (stereo not drawn), the melting point fell in the range of 124 to 129 °C. As for `CC(=O)NCC1CN(c2ccc(N3CCN(c4nnc(C)o4)CC3)c(F)c2)C(=O)O1` (stereo not drawn), the melting point was in the range of 212 to 214 °C.

`Cc1cc2c(c(C)c1C)C(c1ccc(C(C)C)cc1)CO2` (stereo not drawn) registered a melting point of 70 to 71 °C.

In turn, `Cc1ccc2c(c1)c(N1CCN(C(=O)c3ccco3)CC1)c(C#N)c(=O)n2C` had a melting point of 231 °C. The molecule `CCn1ncc2c(-c3cncc(C)c3)c(CCC(=O)O)c(-c3ocnc3C)nc21` gave a melting point of 184 to 186 °C. `COc1ccccc1C(O)c1cccc2c1ccn2C` (stereo not drawn) gave a melting point of 95 °C. `COc1cc(Cc2cnc(NC(C)=N)nc2N)cc(OC)c1OC` yielded a melting point of 207 °C. Take `CCCNc1cc(NS(=O)(=O)c2ccc(N)cc2)nc(NCCC)n1`: the melting point is 211 to 215 °C. The molecule `CCOC(=O)CC(=O)NS(=O)(=O)c1ccc([N+](=O)[O-])cc1` yielded a melting point of 97 °C. To `CC(C)c1cc(CCCOc2ncccc2CC(=O)O)n(Cc2ccc(C(F)(F)F)cc2Cl)n1` belongs 114 to 115 °C; to `Cc1cccc(C(=O)Nc2nc(-c3ccccc3)c(-c3ccc(=O)n(C(C)C)n3)s2)c1`, 198 to 199 °C. In turn, `NC(N)C(=O)c1ccccc1` gave a melting point of 104 to 107 °C. As for `CC(NC(=O)NO)c1ccc2ccccc2c1` (stereo not drawn), the melting point was in the range of 156 to 157 °C. `NS(=O)(=O)c1cnc(-c2cn(-c3cc(C(F)(F)F)cc(-c4ccc(C(F)(F)F)cc4)n3)cn2)s1` showed a melting point above 266 °C. In turn, `COc1ccc2[nH]c(SCc3ncnc(N4CCCC4)c3C)nc2c1` gave a melting point of 104 to 106 °C.

Turning to `O=c1c2cc(F)c(N3CCCC3)cc2n(-c2ccc(F)cc2F)c(=O)n1O`, the melting point was 232 to 234 °C.
